Experimental data published in publication PMC8070745, “FEN1 Blockade for Platinum Chemo-Sensitization and Synthetic Lethality in Epithelial Ovarian Cancers” (Cancers, 2021).

Key:
A2780cis cells = assay: Clonogenic assay, A2780cis; format: cell-based, human; settings: pre-treatment with importin β inhibitor, then cisplatin vs cisplatin only
Protocol: Clonogenic assay: In the clonogenic assay (colony formation assays), 32 cells/cm2 were seeded in 6-well plates and left at 37°C in a 5% CO2 atmosphere. Cisplatin (5µM) and/or FEN1i (10µM) and/or Importazole (5 µM, Selleckem, S8446 ) were added at the indicated concentrations and the plates were left at 37 °C in a 5% CO 2 atmosphere for 14 days. Later, the plates were washed with PBS, fixed and stained with a crystal violet, acetic acid and methanol solution and colonies were counted. […]

[1] = test system: FEN1 nuclear localization in A2780cis cells; assay: Confocal microscopy of FEN1 nuclear localization, A2780cis; format: cell-based, human; settings: pre-treatment with importin β inhibitor (5 µM) followed by cisplatin
Protocol: For PEO1 and PEO4 cells, the cells where keep in culture up to four weeks ([…]) until spheroids structures were formed.
To quantify cell viability, LIVE/DEAD Viability/Cytotoxicity Kit (L3224, Thermo Fisher Scientific) was used. Briefly, the spheroids were harvest by trypsinization, washed with PBS and centrifuge at 1000×g for 5 minutes. The light-protected cellular pellet in PBS was loaded with 0.1µM of Calcein-AM and 1 µM of Ethidium homodimer-1 for 20 minutes at room temperature. The samples were analysed on a Beckman-Coulter FC500 flow cytometer using a 495nm laser for excitation and a 515nm laser for emission data for Calcein AM and a 495nm laser for excitation and emission at 635nm for Ethidium Homodimer-1. In addition, Image J software was used to calculate spheroid diameter. Mean of three diagonal diameters was taken as diameter for each spheroid. At least 10 spheroids were measured. […]
Laboratories). Imaging was carried out using Leica SP2 confocal laser scanning microscope (CLSM) and analysed with ImageJ software (NIH, USA). For analysis a minimum of 100 cells per slide were counted.
On 3D structures, the spheroids were fixed with 4% paraformaldehyde for 30 minutes. […] Imaging was carried out using Leica SP2 confocal laser scanning microscope (CLSM) and analysed with ImageJ software (NIH, USA). […]

[2] = test system: BRCA deficient germ-line or platinum-sensitive sporadic epithelial ovarian cancers; parameters: method as in PMID 22452356, PMID 27717299, PMID 28916367, PMID 27908594; settings: maintenance therapy in patients; cited from earlier work

Row | Structure (SMILES) | effect on cisplatin sensitivity (A2780cis cells) | nuclear localization of FEN1 [1] | progression-free survival [2]
1 | CC(Nc1nc(N2CCCC2)nc2ccccc12)c1ccccc1 (centres unmarked) [Importanzole] | re-sensitized these cells to cisplatin therapy | reduced nuclear localization of FEN1 | –
2 | NC(=O)c1cccc2cn(-c3ccc([C@@H]4CCCNC4)cc3)nc12 [Niraparib] | – | – | substantially improves progression-free survival
3 | O=C(c1cc(Cc2n[nH]c(=O)c3ccccc23)ccc1F)N1CCN(C(=O)C2CC2)CC1 [Olaparib] | – | – | substantially improves progression-free survival
4 | CNCc1ccc(-c2[nH]c3cc(F)cc4c3c2CCNC4=O)cc1 [Rucaparib] | – | – | substantially improves progression-free survival
